Values of other authors as cited in PMC3259182 (European Journal of Medicinal Chemistry, 2011).

Experiments:
[1] = system: NV replicon-harboring cells (HG23 cells); settings: NV genome levels, 24 hr post-treatment, ref [4]
[2] = system: HG23 cells; settings: median toxic dose at 48 hr of treatment, ref [4]

Row | SMILES | ED50 [1] | TD50 [2]
1 | Cl.O=S1(=O)N(CCN2CCOCC2)CCN1Cc1cccc(Oc2ccccc2)c1 [Compound 7c, 2-(2-Morpholinoethyl)-5-(3-phenoxybenzyl)-1,2,5-thiadiazolidine 1,1-dioxide] | 5.2 µM | 95.4 µM
2 | O=S1(=O)N(CCN2CCCCC2)CCN1Cc1cccc(Oc2ccccc2)c1 [Compound 7d, 2-(3-Phenoxybenzyl)-5-(2-(piperidin-1-yl)ethyl)-1,2,5-thiadiazolidine1,1-dioxide] | 4.7 µM | 12.3 µM
